According to patent publication US20260183274A1, “PDK1 REGULATORY COMPOUND AND COMPOSITION CONTAINING THE SAME” (PROVIBIO CO., LTD., priority 2024, published 2026):
Entries after “also recorded” stand apart in the source; their conditions may differ.

Experiments:
[1] = molecular target: T1, PDK1 (phosphoinositide-dependent kinase 1) (Homo sapiens, UniProt O15530); assay: PDK1 phosphorylation (pPDK1) by flow cytometry in SU-DHL-8 cells; assay type: cell-based; details: SU-DHL-8, 24 hours, vs control group; FIG. 3; listed as GO86
T1 construct: endogenous in cells; host or cells: SU-DHL-8 (ATCC CRL-2961)
T1 sequence (O15530 1-556): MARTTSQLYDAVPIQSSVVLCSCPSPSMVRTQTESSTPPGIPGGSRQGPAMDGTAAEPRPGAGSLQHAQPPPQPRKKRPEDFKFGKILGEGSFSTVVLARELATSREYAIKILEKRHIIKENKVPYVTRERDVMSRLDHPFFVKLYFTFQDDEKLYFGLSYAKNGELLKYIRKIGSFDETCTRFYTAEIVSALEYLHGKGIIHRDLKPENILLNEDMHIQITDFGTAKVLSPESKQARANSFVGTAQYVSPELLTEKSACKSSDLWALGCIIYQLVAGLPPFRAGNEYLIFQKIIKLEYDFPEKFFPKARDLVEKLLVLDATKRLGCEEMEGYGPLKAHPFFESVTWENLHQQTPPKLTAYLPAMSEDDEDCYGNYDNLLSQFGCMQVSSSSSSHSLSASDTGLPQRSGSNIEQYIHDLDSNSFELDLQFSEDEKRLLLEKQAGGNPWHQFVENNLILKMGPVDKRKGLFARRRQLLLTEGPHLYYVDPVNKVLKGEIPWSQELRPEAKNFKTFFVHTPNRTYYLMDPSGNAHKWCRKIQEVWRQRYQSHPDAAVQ
Protocol: After stabilizing the cells, the compound of the present invention was added, and the cells were cultured for 24 hours.
After drug treatment, the cells were harvested, and the Fc receptor blocking process was performed. The cells were then fixed and permeabilized using the Intracellular Staining Kit (Cat. No. BD554715) from BD Biosciences. Subsequently, the intracellular pPDK1 was stained using the pPDK1-PE fluorescently labeled antibody (BD Biosciences).
Referring to the figure, the vertical axis represents the phosphorylation level of PDK1 (phospho-PDK1 expression level), and the horizontal axis denotes the concentration-dependent treatment conditions of each compound.

[2] = test system: Human Osteosarcoma, Saos-2; assay: Relative cell viability CCK-8, Saos-2; assay type: cell-based; details: 48 hours
Protocol: Human-derived head and neck cancer cell line Fadu and osteosarcoma cell line Saos-2 were cultured in MEM medium containing 10% FBS, 100 U/mL penicillin, and 100 μg/mL streptomycin.
(§1) Following stabilization, the cells were harvested using Trypsin-EDTA treatment, centrifuged at 1,200 rpm for 3 minutes, the supernatant was removed, and the cells were resuspended in the same medium. They were then seeded into a 96-well plate (Costar 96-well cell culture plate, Corning) at 100 μL per well, and the conditions were adjusted as indicated in Table 5.
(§2) The cells were cultured in a 5% CO2 incubator at 37° C. for 24 hours, and after stabilization of the cells, each plate was washed with 200 μL of PBS per well and treated with 50 μL of culture medium per well.
(§3) After that, 10 μL of CCK-8 was added to each well, and the plate was incubated again at 37° C. in a 5% CO2 incubator for 2 hours.
(§4) In other words, when the survival rate of untreated cells (DMSO) is set at 100%, the relative cell survival rate in each group treated with the drug at different concentrations is indicated.

[3] = test system: Human Head and Neck cancer, Fadu; assay: Relative cell viability CCK-8, Fadu; assay type: cell-based; details: Fadu cells, relative to untreated cells
[4] = test system: HCT-116 colon cancer cell lines; assay: Matrigel Invasion Assay, HCT-116; assay type: cell-based, human; details: 24 hours treatment, FIG. 30
[5] = test system: Human Melanoma cancer cell, Malme-3M; assay: Relative cell viability CCK-8, Malme-3M; assay type: cell-based; details: 48 hours
Protocol: Human-derived breast cancer cell line MCF-7, human-derived lung cancer cell line A549, human-derived colorectal cancer cell line HCT-116, human pancreatic cancer cell line AsPC-1, glioblastoma cell line A172, and melanoma cell line Malme-3M were obtained from the Korean Cell Bank. gastric cancer cell line SNU-719, and bladder cancer cell line T24 were cultured in RPMI-1640 medium containing 10% FBS.
as §1, §2, §3, §4

[6] = test system: Human Colorectal Carcinoma cell line, HCT-116; assay: Relative cell viability CCK-8, HCT-116; assay type: cell-based; details: 48 hours
Outline: (§5)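 Cells were seeded, stabilized 24 h at 37 °C, 5% CO2, then exposed to compound at several concentrations. Viability was measured by CCK-8 after a 2 h incubation and expressed relative to untreated (DMSO) cells set at 100%.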

[7] = test system: Human Bladder cancer cell, T24; assay: Relative cell viability CCK-8, T24; assay type: cell-based; details: 48 hours
Outline: as §5

CC1(C)CN(CCCCCCCCCCCCC(=O)Nc2nc(N)c3[nH]cnc3n2)CCO1 [Compound 11, 12-[4-(2,2-dimethylmorpholin-4-yl)]dodecyl-N-(6-aminopurine-2-yl) carboxamide]
Inhibition of PDK1 phosphorylation (phospho-PDK1 expression level) [1]: stronger PDK1 inhibition; also recorded: high inhibitory effects even at low concentrations | Relative cell viability (%), Saos-2 ([2]; 1 μM): 36.73% | Relative cell viability (%), Saos-2 ([2]; 10 μM): 24.98% | Relative cell viability (%), Saos-2 ([2]; 30 μM): 16.00% | Relative cell viability (%), Saos-2 ([2]; 50 μM): 36.73% | Relative cell viability (%) ([3]; 1 μM): 2.08% | Relative cell viability (%) ([3]; 10 μM): 9.68% | Relative cell viability (%) ([3]; 30 μM): 8.51% | Relative cell viability (%) ([3]; 50 μM): 4.78% | Number of infiltrated cells (invasion) [4]: reduction in the number of infiltrated cells | Relative cell viability (%), Malme-3M ([5]; 1 μM): 44.06% | Relative cell viability (%), Malme-3M ([5]; 10 μM): 37.40% | Relative cell viability (%), Malme-3M ([5]; 30 μM): 36.80% | Relative cell viability (%), Malme-3M ([5]; 50 μM): 38.87% | Relative cell viability (%), HCT-116 ([6]; 1 μM): 21.36% | Relative cell viability (%), HCT-116 ([6]; 10 μM): 24.91% | Relative cell viability (%), HCT-116 ([6]; 30 μM): 24.78% | Relative cell viability (%), HCT-116 ([6]; 50 μM): 25.26% | Relative cell viability (%), T24 ([7]; 1 μM): 28.15% | Relative cell viability (%), T24 ([7]; 10 μM): 31.17% | Relative cell viability (%), T24 ([7]; 30 μM): 30.42% | Relative cell viability (%), T24 ([7]; 50 μM): 29.34%
